“Also recorded” adds a separate entry of the source. *1 amine or outer side, *2 acyl side, *3 side chain or, on linkers, in order; H or OH if unused. Where a SMILES comes first, the peptide text is derived from it. Bridges are numbered along the chain shown (N, C = ends). [ ]: non-standard residue; d: D form. Adda = CO[C@@H](Cc1ccccc1)[C@@H](C)/C=C(C)/C=C/[C@H](N[*:1])[C@H](C)C(=O)[*:2]; dAsp(3S-Me) = C[C@H](C(=O)[*:3])[C@@H](N[*:1])C(=O)[*:2]; d(γGlu) = O=C(O)[C@@H](CCC(=O)[*:2])N[*:1]; NMeDha = C=C(NC)C(=O)O
Legend:
human PME-1 [1] = biological target: human PME-1 (Homo sapiens, UniProt Q9Y570); type: biochemical
PP2A methyltransferase = settings: cited from earlier work
human PME-1 [2] = type: biochemical
PP2A = PP2A (Homo sapiens, UniProt P67775); type: biochemical
[3] = system: 46 kDa PP2A methylesterase; settings: cited from earlier work
H59Q/PME-1 complex = biological target: T1, H59Q/PME-1 complex (Homo sapiens, UniProt P67775, H59Q); type: binding, mouse
T1 construct: expressed in transfected cells; host or cells: NIH3T3 (A3); MT-transformed NIH3T3 (A8); PME-1 is endogenous

PME-1 = biological target: T2, PME-1 (Mus musculus, UniProt Q8BVQ5); experiment: Immunoprecipitation assay of PME-1 binding to H59Q/301Stop versus H59Q; settings: all seven experiments
T2 construct: endogenous in cells; host or cells: MT-transformed NIH3T3 cells (C subunit mutants stably transfected)
T2 sequence (Q8BVQ5 1-386): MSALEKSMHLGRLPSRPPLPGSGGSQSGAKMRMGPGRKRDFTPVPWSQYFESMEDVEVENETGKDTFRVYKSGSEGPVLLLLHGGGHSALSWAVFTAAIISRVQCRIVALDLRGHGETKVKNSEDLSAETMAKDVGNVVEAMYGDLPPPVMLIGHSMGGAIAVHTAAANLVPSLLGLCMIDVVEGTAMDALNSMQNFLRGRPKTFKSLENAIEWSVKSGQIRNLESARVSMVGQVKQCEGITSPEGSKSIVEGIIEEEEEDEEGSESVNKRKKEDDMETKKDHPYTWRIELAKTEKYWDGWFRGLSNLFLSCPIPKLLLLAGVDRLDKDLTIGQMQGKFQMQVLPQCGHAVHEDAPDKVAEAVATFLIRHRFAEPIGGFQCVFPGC

[4] = system: phosphorylase a and cdc2-phosphorylated histone H1; experiment: Phosphatase activity in anti-HA tag immunoprecipitates of wt and mutant C subunits; type: biochemical; settings: normalized to wt, four independent experiments

T1 sequence (P67775 whole entry H59Q): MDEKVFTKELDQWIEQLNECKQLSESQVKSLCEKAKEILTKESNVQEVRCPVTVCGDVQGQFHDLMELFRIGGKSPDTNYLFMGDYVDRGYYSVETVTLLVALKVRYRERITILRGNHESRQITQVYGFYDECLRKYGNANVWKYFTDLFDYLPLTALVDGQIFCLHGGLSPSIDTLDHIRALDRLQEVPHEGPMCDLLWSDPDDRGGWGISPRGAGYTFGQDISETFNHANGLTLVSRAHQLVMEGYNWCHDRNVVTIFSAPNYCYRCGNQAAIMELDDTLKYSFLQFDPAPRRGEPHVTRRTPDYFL
T1 sequence (Q76MZ3 whole entry partner): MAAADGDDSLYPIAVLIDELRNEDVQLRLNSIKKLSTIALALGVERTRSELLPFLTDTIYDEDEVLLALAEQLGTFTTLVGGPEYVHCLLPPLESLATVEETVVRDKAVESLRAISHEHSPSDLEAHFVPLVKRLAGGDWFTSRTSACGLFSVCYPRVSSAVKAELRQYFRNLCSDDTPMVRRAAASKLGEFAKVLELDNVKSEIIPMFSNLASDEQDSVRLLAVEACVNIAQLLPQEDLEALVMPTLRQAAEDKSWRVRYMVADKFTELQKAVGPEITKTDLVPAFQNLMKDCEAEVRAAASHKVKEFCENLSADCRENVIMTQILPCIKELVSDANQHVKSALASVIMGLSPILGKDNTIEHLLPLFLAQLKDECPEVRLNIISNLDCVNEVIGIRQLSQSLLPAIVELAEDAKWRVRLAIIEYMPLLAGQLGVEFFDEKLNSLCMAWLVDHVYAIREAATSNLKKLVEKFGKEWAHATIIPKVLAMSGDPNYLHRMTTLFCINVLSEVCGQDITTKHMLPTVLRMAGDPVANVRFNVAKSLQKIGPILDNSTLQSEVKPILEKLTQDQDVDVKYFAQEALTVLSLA
Sequence of PP2A (P67775 whole entry): as the sequence (P67775 whole entry H59Q) above, with Q59H counted along it
Sequence of human PME-1 (Homo sapiens, UniProt Q9Y570) (Q9Y570 2-386): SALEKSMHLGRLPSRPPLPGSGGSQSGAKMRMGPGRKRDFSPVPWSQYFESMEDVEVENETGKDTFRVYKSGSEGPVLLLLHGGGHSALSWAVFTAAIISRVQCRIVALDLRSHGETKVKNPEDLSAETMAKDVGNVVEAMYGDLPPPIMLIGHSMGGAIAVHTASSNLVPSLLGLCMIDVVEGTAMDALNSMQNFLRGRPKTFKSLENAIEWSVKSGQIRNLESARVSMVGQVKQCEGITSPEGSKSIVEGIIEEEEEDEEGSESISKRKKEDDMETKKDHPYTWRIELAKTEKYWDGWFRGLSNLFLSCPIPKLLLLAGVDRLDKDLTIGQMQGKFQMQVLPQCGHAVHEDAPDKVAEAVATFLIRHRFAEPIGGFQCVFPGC

Compound: O=S(=O)(F)Cc1ccccc1 [PMSF, phenylmethylsulfonyl fluoride]
- methylesterase activity of bacterially expressed PME-1 (human PME-1 [1]): not

Compound: C=C1C(=O)N[C@H](C)C(=O)N[C@@H](CC(C)C)C(=O)N[C@@H](C(=O)O)[C@H](C)C(=O)N[C@@H](CCCNC(=N)N)C(=O)N[C@@H](/C=C/C(C)=C/[C@H](C)[C@H](Cc2ccccc2)OC)[C@H](C)C(=O)N[C@@H](C(=O)O)CCC(=O)N1C [microcystin-LR] (R[Adda][d(γGlu)][NMeDha][dA]L[dAsp(3S-Me)]-OH; lactam N-7)
- inhibition of the PP2A methyltransferase (PP2A methyltransferase): inhibited

Compound: C=C1[C@@H](O)[C@@H]2O[C@]3(CC[C@H](/C=C/[C@@H](C)[C@@H]4CC(C)=C[C@@]5(O[C@H](C[C@@](C)(O)C(=O)O)CC[C@H]5O)O4)O3)CC[C@H]2O[C@@H]1[C@@H](O)C[C@H](C)[C@H]1O[C@@]2(CCCCO2)CC[C@H]1C [okadaic acid]
- methylesterase activity of bacterially expressed PME-1 (human PME-1 [2]): inhibited
- inhibition of PP2A (PP2A): 97±4%
- inhibition of the 46 kDa PP2A methylesterase [3]: inhibited
- amount of PME-1 bound to (complexed with) H59Q C subunit (H59Q/PME-1 complex): reduce; also recorded: decreased
- inhibition of the PP2A methyltransferase (PP2A methyltransferase): inhibited

Compound: [F-].[Na+] [sodium fluoride]
- inhibition of PP2A (PP2A): 91±10%
- amount of PME-1 bound to (complexed with) H59Q C subunit (H59Q/PME-1 complex): reduce; also recorded: decreased

Compound: H59Q/301Stop: double mutant combining H59Q with deletion of the nine C subunit carboxy-terminal amino acids 301-309
- overall mean reduction of PME-1 bound relative to H59Q (PME-1): 28%

Compound: sodium vanadate
- inhibition of PP2A (PP2A): 25±18%
- amount of PME-1 bound to (complexed with) H59Q C subunit (H59Q/PME-1 complex): not

Compound: wt: HA-tagged wild-type PP2A C subunit
- C subunit-associated phosphatase activity, cdc2-phosphorylated Histone H1 (Mean ± s.d.) ([4]; substrate cdc2-phosphorylated histone H1): 100 % wt
- C subunit-associated phosphatase activity, phosphorylase a (Means ± s.d.) ([4]; substrate phosphorylase a): 100 % wt

Reference: patent publication US6528295B2, “Protein phosphatase methylesterase” (priority 1998, dated 2003)
